# Laboratory results published in patent publication US9771370B2, “Compounds for the inhibition of indoleamine-2,3-dioxygenase” (Merck Patent GmbH, priority 2014, dated 2017).
# Target: Recombinant human IDO (Homo sapiens, UniProt P14902)
# Experiment: Bridge-IT tryptophan fluorescence assay of human IDO-1 inhibition
# Format: biochemical
# Details: recombinant human IDO 7.5 nM, L-tryptophan
# Procedure, shortened: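 Two protocol variants: 100 μM L-Trp for 90 min at 37 °C, or 30 min enzyme–compound pre-incubation at 25 °C, then 50 μM L-Trp for 60 min at 25 °C. Reaction stopped in Bridge-IT solution A for 30 min at 30 °C.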
# Sequence of Recombinant human IDO (P14902 whole entry): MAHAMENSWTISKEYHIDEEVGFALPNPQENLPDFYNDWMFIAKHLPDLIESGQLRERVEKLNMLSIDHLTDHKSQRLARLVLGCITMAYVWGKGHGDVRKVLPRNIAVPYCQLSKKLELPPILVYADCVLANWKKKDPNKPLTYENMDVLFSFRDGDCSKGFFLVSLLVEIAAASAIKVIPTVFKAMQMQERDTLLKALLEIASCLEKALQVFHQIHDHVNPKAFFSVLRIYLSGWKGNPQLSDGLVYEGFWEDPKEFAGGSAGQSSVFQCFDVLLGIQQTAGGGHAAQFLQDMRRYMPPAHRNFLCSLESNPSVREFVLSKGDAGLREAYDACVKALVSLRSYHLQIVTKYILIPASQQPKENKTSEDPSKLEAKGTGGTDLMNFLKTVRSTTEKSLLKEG
row,SMILES,IC50 [nM]
1,"Fc1ccnc2c1-c1cncn1C2CCC1(F)CCCCC1 (single isomer, unassigned) [Compound 102b, 12-fluoro-7-[2-(1-fluorocyclohexyl)ethyl]-4,6,9-triazatricyclo[6.4.0.0^[2,6]]dodeca-1(8),2,4,9,11-pentaene]",> 1000
2,"OCC1CCC(F)(CCC2c3c(Cl)cccc3-c3cncn32)CC1 (single isomer, unassigned) [Compound 105a, [4-[2-[6-chloro-5H-imidazo[4,3-a]isoindol-5-yl]ethyl]-4-fluorocyclohexyl]methanol]",> 1000
3,"OCC1CCC(F)(CCC2c3c(Cl)cccc3-c3cncn32)CC1 (single isomer, unassigned) [Compound 105c, [4-[2-[6-chloro-5H-imidazo[4,3-a]isoindol-5-yl]ethyl]-4-fluorocyclohexyl]methanol]",< 100
4,"OC(CC1c2ncccc2-c2cncn21)C1(F)CCCCC1 (single isomer, unassigned) [Compound 109a, 1-(1-fluorocyclohexyl)-2-[4,6,9-triazatricyclo[6.4.0.0^[2,6]]dodeca-1(8),2,4,9,11-pentaen-7-yl]ethan-1-ol]",> 1000
5,"OC(CC1c2ncccc2-c2cncn21)C1(F)CCCCC1 (single isomer, unassigned) [Compound 109c, 1-(1-fluorocyclohexyl)-2-[4,6,9-triazatricyclo[6.4.0.0^[2,6]]dodeca-1(8),2,4,9,11-pentaen-7-yl]ethan-1-ol]",100 to 1000
6,"NC(=O)CC1CCC(F)(CCC2c3ccccc3-c3cncn32)CC1 (single isomer, unassigned) [Compound 112a, 2-[4-fluoro-4-[2-[5H-imidazo[4,3-a]isoindol-5-yl]ethyl]cyclohexyl]acetamide]",> 1000
7,"NC(=O)CC1CCC(F)(CCC2c3ccccc3-c3cncn32)CC1 (single isomer, unassigned) [Compound 112b, 2-[4-fluoro-4-[2-[5H-imidazo[4,3-a]isoindol-5-yl]ethyl]cyclohexyl]acetamide]",< 100
8,"NC(=O)CC1CCC(F)(CCC2c3ccccc3-c3cncn32)CC1 (single isomer, unassigned) [Compound 112c, 2-[4-fluoro-4-[2-[5H-imidazo[4,3-a]isoindol-5-yl]ethyl]cyclohexyl]acetamide]",> 1000
9,"NC(=O)CC1CCC(F)(CCC2c3ccccc3-c3cncn32)CC1 (single isomer, unassigned) [Compound 112d, 2-[4-fluoro-4-[2-[5H-imidazo[4,3-a]isoindol-5-yl]ethyl]cyclohexyl]acetamide]",< 100
10,"NC(=O)CC1CCC(F)(CCC2c3c(Cl)cccc3-c3cncn32)CC1 (single isomer, unassigned) [Compound 113a, 2-[4-[2-[6-chloro-5H-imidazo[4,3-a]isoindol-5-yl]ethyl]-4-fluorocyclohexyl]acetamide]",< 100
11,"NC(=O)CC1CCC(F)(CCC2c3c(Cl)cccc3-c3cncn32)CC1 (single isomer, unassigned) [Compound 113b, 2-[4-[2-[6-chloro-5H-imidazo[4,3-a]isoindol-5-yl]ethyl]-4-fluorocyclohexyl]acetamide]",> 1000
12,"NC(=O)CC1CCC(F)(CCC2c3c(Cl)cccc3-c3cncn32)CC1 (single isomer, unassigned) [Compound 113c, 2-[4-[2-[6-chloro-5H-imidazo[4,3-a]isoindol-5-yl]ethyl]-4-fluorocyclohexyl]acetamide]",> 1000
13,"NC(=O)CC1CCC(F)(CCC2c3c(Cl)cccc3-c3cncn32)CC1 (single isomer, unassigned) [Compound 113d, 2-[4-[2-[6-chloro-5H-imidazo[4,3-a]isoindol-5-yl]ethyl]-4-fluorocyclohexyl]acetamide]",< 100
14,"CN(C)C(=O)C1CCC(F)(CCC2c3c(Cl)cccc3-c3cncn32)CC1 (single isomer, unassigned) [Compound 114a, 4-[2-[6-chloro-5H-imidazo[4,3-a]isoindol-5-yl]ethyl]-4-fluoro-N,N-dimethylcyclohexane-1-carboxamide]",< 100
15,"CN(C)C(=O)C1CCC(F)(CCC2c3c(Cl)cccc3-c3cncn32)CC1 (single isomer, unassigned) [Compound 114b, 4-[2-[6-chloro-5H-imidazo[4,3-a]isoindol-5-yl]ethyl]-4-fluoro-N,N-dimethylcyclohexane-1-carboxamide]",< 100
16,"CN(C)C(=O)C1CCC(F)(CCC2c3c(Cl)cccc3-c3cncn32)CC1 (single isomer, unassigned) [Compound 114c, 4-[2-[6-chloro-5H-imidazo[4,3-a]isoindol-5-yl]ethyl]-4-fluoro-N,N-dimethylcyclohexane-1-carboxamide]",> 1000
17,"CN(C)C(=O)C1CCC(F)(CCC2c3c(Cl)cccc3-c3cncn32)CC1 (single isomer, unassigned) [Compound 114d, 4-[2-[6-chloro-5H-imidazo[4,3-a]isoindol-5-yl]ethyl]-4-fluoro-N,N-dimethylcyclohexane-1-carboxamide]",> 1000

row,SMILES,IC50 [nM]
1,"O=C(C1CCC(F)(CCC2c3c(Cl)cccc3-c3cncn32)CC1)N1CCCCC1 (single isomer, unassigned) [Compound 115a]",< 100
2,"O=C(C1CCC(F)(CCC2c3c(Cl)cccc3-c3cncn32)CC1)N1CCCCC1 (single isomer, unassigned) [Compound 115b]",< 100
3,"O=C(C1CCC(F)(CCC2c3c(Cl)cccc3-c3cncn32)CC1)N1CCCCC1 (single isomer, unassigned) [Compound 115c]",100 to 1000
4,"O=C(C1CCC(F)(CCC2c3c(Cl)cccc3-c3cncn32)CC1)N1CCCCC1 (single isomer, unassigned) [Compound 115d]",> 1000
5,"NC(=O)CC1CCC(F)(CCC2c3c(F)cccc3-c3cncn32)CC1 (single isomer, unassigned) [Compound 116a, 2-[4-Fluoro-4-[2-[6-fluoro-5H-imidazo[4,3-a]isoindol-5-yl]ethyl]cyclohexyl]acetamide]",> 1000
6,"NC(=O)CC1CCC(F)(CCC2c3c(F)cccc3-c3cncn32)CC1 (single isomer, unassigned) [Compound 116b, 2-[4-Fluoro-4-[2-[6-fluoro-5H-imidazo[4,3-a]isoindol-5-yl]ethyl]cyclohexyl]acetamide]",< 100
7,"NC(=O)CC1CCC(F)(CCC2c3c(F)cccc3-c3cncn32)CC1 (single isomer, unassigned) [Compound 116c, 2-[4-Fluoro-4-[2-[6-fluoro-5H-imidazo[4,3-a]isoindol-5-yl]ethyl]cyclohexyl]acetamide]",> 1000
8,"NC(=O)CC1CCC(F)(CCC2c3c(F)cccc3-c3cncn32)CC1 (single isomer, unassigned) [Compound 116d, 2-[4-Fluoro-4-[2-[6-fluoro-5H-imidazo[4,3-a]isoindol-5-yl]ethyl]cyclohexyl]acetamide]",< 100
9,"OC(CC1c2ncccc2-c2cncn21)C1CCC(C2(O)CC2)CC1 (single isomer, unassigned) [Compound 117a, 1-[4-[1-hydroxy-2-[4,6,9-triazatricyclo[6.4.0.0^[2,6]]dodeca-1(8),2,4,9,11-pentaen-7-yl]ethyl]cyclohexyl]cyclopropan-1-ol]",> 1000
10,"OC(CC1c2ncccc2-c2cncn21)C1CCC(C2(O)CC2)CC1 (single isomer, unassigned) [Compound 117b, 1-[4-[1-hydroxy-2-[4,6,9-triazatricyclo[6.4.0.0^[2,6]]dodeca-1(8),2,4,9,11-pentaen-7-yl]ethyl]cyclohexyl]cyclopropan-1-ol]",100 to 1000
11,"OC(CC1c2ncccc2-c2cncn21)C1CCC(C2(O)CC2)CC1 (single isomer, unassigned) [Compound 117c, 1-[4-[1-hydroxy-2-[4,6,9-triazatricyclo[6.4.0.0^[2,6]]dodeca-1(8),2,4,9,11-pentaen-7-yl]ethyl]cyclohexyl]cyclopropan-1-ol]",> 1000
12,"OC(CC1c2ncccc2-c2cncn21)C1CCC(C2(O)CC2)CC1 (single isomer, unassigned) [Compound 117d, 1-[4-[1-hydroxy-2-[4,6,9-triazatricyclo[6.4.0.0^[2,6]]dodeca-1(8),2,4,9,11-pentaen-7-yl]ethyl]cyclohexyl]cyclopropan-1-ol]",> 1000
13,"COc1ccc2c(n1)C(CC(N)C1CCCCC1)n1cncc1-2 (single isomer, unassigned) [Compound 118b, 1-cyclohexyl-2-[10-methoxy-4,6,9-triazatricyclo[6.4.0.0^[2,6]]dodeca-1(8),2,4,9,11-pentaen-7-yl]ethan-1-amine]",100 to 1000
14,"COc1ccc2c(n1)C(CC(N)C1CCCCC1)n1cncc1-2 (single isomer, unassigned) [Compound 118c, 1-cyclohexyl-2-[10-methoxy-4,6,9-triazatricyclo[6.4.0.0^[2,6]]dodeca-1(8),2,4,9,11-pentaen-7-yl]ethan-1-amine]",> 1000
15,"COc1ccc2c(n1)C(CC(N)C1CCC(C)(C)CC1)n1cncc1-2 (single isomer, unassigned) [Compound 119a, 1-(4,4-dimethylcyclohexyl)-2-[10-methoxy-4,6,9-triazatricyclo[6.4.0.0^[2,6]]dodeca-1(8),2,4,9,11-pentaen-7-yl]ethan-1-amine]",> 1000
16,"COc1ccc2c(n1)C(CC(N)C1CCC(C)(C)CC1)n1cncc1-2 (single isomer, unassigned) [Compound 119b, 1-(4,4-dimethylcyclohexyl)-2-[10-methoxy-4,6,9-triazatricyclo[6.4.0.0^[2,6]]dodeca-1(8),2,4,9,11-pentaen-7-yl]ethan-1-amine]",> 1000
17,"COc1ccc2c(n1)C(CC(N)C1CCC(C)(C)CC1)n1cncc1-2 (single isomer, unassigned) [Compound 119c, 1-(4,4-dimethylcyclohexyl)-2-[10-methoxy-4,6,9-triazatricyclo[6.4.0.0^[2,6]]dodeca-1(8),2,4,9,11-pentaen-7-yl]ethan-1-amine]",100 to 1000
